Results from US7109193B2, “Tricyclic diazepines tocolytic oxytocin receptor antagonists” (Wyeth, priority 2001, dated 2006).

Target: T1, human oxytocin receptor (Homo sapiens, UniProt P30559)
T1 construct: host or cells: CHO cells (pcDNA3.1 vector)
T1 sequence (P30559 1-389): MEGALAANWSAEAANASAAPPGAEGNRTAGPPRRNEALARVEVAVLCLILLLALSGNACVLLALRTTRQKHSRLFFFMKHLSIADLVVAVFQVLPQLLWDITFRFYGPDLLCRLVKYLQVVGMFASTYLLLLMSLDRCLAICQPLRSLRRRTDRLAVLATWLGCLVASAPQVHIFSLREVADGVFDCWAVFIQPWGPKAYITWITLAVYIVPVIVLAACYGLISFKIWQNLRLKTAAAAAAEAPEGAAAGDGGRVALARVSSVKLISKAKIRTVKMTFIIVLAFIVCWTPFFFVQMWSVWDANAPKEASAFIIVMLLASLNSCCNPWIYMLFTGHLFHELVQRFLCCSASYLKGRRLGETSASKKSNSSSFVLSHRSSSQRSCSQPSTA
Assay: Oxytocin binding in Chinese Hamster Ovary cell membranes expressing human oxytocin receptors
Details: 100 nM, CHO cell membranes, [3H]oxytocin, values without parentheses; for inhibition at 0.1 µM: read-out: OT % inhibition @ 100% nM
Protocol: Oxytocin Binding in Chinese Hamster Ovary Cell Membranes Expressing Human Oxytocin Receptors
The trypsin is removed by aspiration and the cells dislodged by tapping. Cell Culture medium (e.g. 30 mL for 1:30 split) is immediately added and mixed well to inactivate trypsin. 1 mL of detached cells is added to new culture flasks containing fresh Cell Culture medium (e.g. into 25 mL per T-150 flask), and mixed gently. The cells are incubated at 37° C. in 5% CO2. The medium is changed at 3 to 4 days interval (or as appropriate). […] All steps are done under sterile conditions. B. Membrane Preparation: The cells are washed twice gently with Hank's Balanced Salt solution (e.g., use 10 mL per T-150 flask). […] The contents are transferred to centrifuge tubes (50 mL size) kept in ice bath. All subsequent steps are done at 4° C. The tubes are centrifuged at 300×g for 15 min (1380 rpm on SORVAL, Model RT6000D, using rotor for 50 mL tubes). The supernatant is discarded and the cells suspended in homogenizing buffer (10 mM Tris-HCl containing 0.25 M sucrose and 1 mM EDTA, pH 7.4) ensuring that the volume of the buffer is about ten times the volume of the cell pellet. The cells are pooled into a centrifuge tube (50 mL) and homogenized with a Polytron at setting 6 for 10 sec. The homogenate is transferred into a Potter-Elvjehm homogenizer and homogenized with 3 strokes. The homogenate is centrifuged at 1500×g for 10 min at 4° C. (3100 rpm using SORVAL, model RT6000D, using rotor for 50 mL tubes). The pellet is discarded. The supernatant is centrifuged at 100,000×g for 60 min. at 4° C. (Beckman L8-80M ultracentrifuge; spin at 37,500 rpm with rotor type 70 Ti for 50 mL tubes; 38,000 rpm with type 80Ti for 15 mL tubes; or 35,800 rpm with rotor type 45Ti). The supernantant is discarded and the pellet suspended in 3 to 4 mL of Tris buffer (50 mM TRIS-HCl, pH 7.4). The protein content is estimated by the Bradford or Lowry method. The volume of the membrane suspension is adjusted with the membrane buffer (50 mM Tris-HCl containing 0.1% BSA and 0.1 mM PMSF) to give 3.0 mg/mL (or as appropriate) of protein. The membranes are aliquoted and stored at −70° C. C. Radioligand Binding Assay: In wells of a 96-well format microtiter plate, is added 90, 110 or 130 μL (to make up a final volume of 200 μL) of assay buffer containing 50 mM of Tris-HCl (pH 7.4), […], 1 mg % aprotinin, 1 mg % leupeptin, 2 mg % 1,10-phenanthroline, 10 mg % trypsin inhibitor, and 0.1 mM PMSF. The inhibitors are added on the day of the experiment. The components are mixed at room temperature, and then kept in ice bath following adjustment of the pH to 7.4. […] For oxytocin and other peptide ligands, 20 μL of 50% DMSO is added and the assay buffer volume is adjusted accordingly. To each well is added 50 μL of frozen membrane suspension thawed immediately prior to use and diluted in assay buffer to the required concentration (equivalent to 25 to 50 μg of protein/well as needed). 20 μL of 8 nM [^3H]oxytocin in the assay buffer, prepared just before use is added and incubated at room temperature for 60 min. shaking the plate on a mechanical shaker for the first 15 min. The incubation is stopped by rapid filtration of the plate contents followed by washing with ice-cold buffer (50 mM Tris-HCl, pH 7.4) using a cell harvester (Tomtek and Printed filtermat-B filter paper). The filter paper is thoroughly dried (7–12 min. in a microwave oven) and impregnated with MeltiLex B/H melt-on scintillation wax sheets and the radioactivity counted in a betaplate scintillation counter.
Binding data is either reported as percent inhibition at a certain concentration or if an IC50 was calculated, as a nanomolar concentration.

SMILES	inhibition at 0.1 µM [%]	OT % inhibition @ 100% nM [%]
Cc1ccccc1-c1ccc(C(=O)N2Cc3ccc(C(=O)N4CC[C@@H](N(C)C)C4)n3Cc3ccccc32)cc1 [Example 280, [(3R)-3-(Dimethylamino)pyrrolidinyl]{10-[(2′-methyl[1,1′-biphenyl]-4-yl)carbonyl]-10,11-dihydro-5H-pyrrolo[2,1-c][1,4]benzodiazepin-3-yl}methanone]	–	95
COc1ccccc1-c1ccc(C(=O)N2Cc3ccc(C(=O)N4CCC(N5CCCCC5)CC4)n3Cc3ccccc32)cc1C [Example 112, {10-[(2-Methyl-2′-methoxy[1,1′-biphenyl]-4-yl)carbonyl]-10,11-dihydro-5H-pyrrolo[2,1-c][1,4]benzodiazepin-3-yl}[4-(1-piperidinyl)-1-piperidinyl]methanone]	89	–
COc1cccc(-c2ccc(C(=O)N3Cc4ccc(C(=O)NCCCn5ccnc5)n4Cc4ccccc43)cc2OC)c1 [Example 133, 10-[(2,3′-Dimethoxy[1,1′-biphenyl]4-yl)carbonyl]-N-[3-(1H-imidazol-1-yl)propyl]-10,11-dihydro-5H-pyrrolo[2,1-c][1,4]benzodiazepine-3-carboxamide]	46	–
COc1cc(C(=O)N2Cc3ccc(C(=O)N4CCC[C@H]4CN4CCCC4)n3Cc3ccccc32)ccc1-n1c(C)ccc1C [Example 321, {10-[4-(2,5-Dimethyl-1H-pyrrol-1-yl)-3-methoxybenzoyl]-10,11-dihydro-5H-pyrrolo[2,1-c][1,4]benzodiazepin-3-yl}[(2S)-2-(1-pyrrolidinylmethyl)pyrrolidinyl]methanone]	–	62
COc1cccc(-c2ccc(C(=O)N3Cc4ccc(C(=O)N5CCC(N6CCCCC6)CC5)n4Cc4ccccc43)cc2OC)c1 [Example 120, {10-[(2,3′-Dimethoxy-[1,1′-biphenyl]-4-yl)carbonyl]-10,11-dihydro-5H-pyrrolo[2,1-c][1,4]benzodiazepin-3-yl}[4-(1-piperidinyl)-1-piperidinyl]methanone]	69	–
COc1cccc(-c2ccc(C(=O)N3Cc4ccc(C(=O)N5CCC[C@H]5CN5CCCC5)n4Cc4ccccc43)cc2OC)c1 [Example 270, {10-[(2,3′-Dimethoxy[1,1′-biphenyl]-4-yl)carbonyl]-10,11-dihydro-5H-pyrrolo[2,1-c][1,4]benzodiazepin-3-yl}[(2S)-2-(1-pyrrolidinylmethyl)pyrrolidinyl]methanone]	–	95

Second part, led by results:

inhibition at 0.1 µM [%]	SMILES	OT % inhibition @ 100% nM [%]
-6	Cc1ccccc1-c1ccc(C(=O)N2Cc3ccc(C(=O)N4CCC(N5CCCC5)CC4)n3Cc3ccccc32)cc1 [Example 141, {10-[(2′-Methyl[1,1′-biphenyl]-4-yl)carbonyl]-10,11-dihydro-5H-pyrrolo[2,1-c][1,4]benzodiazepin-3-yl}[4-(1-pyrrolidinyl)-1-piperidinyl]methanone]	–
56	COc1cc(-c2ccccc2C)c(Cl)cc1C(=O)N1Cc2ccc(C(=O)NCCN3CCCCC3)n2Cc2ccccc21 [Example 155, 10-[(6-Chloro-3-methoxy-2′-methyl[1,1′-biphenyl]-4-yl)carbonyl]-N-[2-(1-piperidinyl)ethyl]-10,11-dihydro-5H-pyrrolo[2,1-c][1,4]benzodiazepine-3-carboxamide]	–
75	Cc1ccccc1-c1ccc(C(=O)N2Cc3ccc(C(=O)NCCN4CCCCC4)n3Cc3ccccc32)cc1C [Example 150, 10-[(2,2′-Dimethyl[1,1′-biphenyl]-4-yl)carbonyl]-N-[2-(1-piperidinyl)ethyl]-10,11-dihydro-5H-pyrrolo[2,1-c][1,4]benzodiazepine-3-carboxamide]	–
75	COc1ccccc1-c1ccc(C(=O)N2Cc3ccc(C(=O)NCCN4CCCCC4)n3Cc3ccccc32)cc1C [Example 149, 10-[(2′-Methoxy-2-methyl[1,1′-biphenyl]-4-yl)carbonyl]-N-[2-(1-piperidinyl)ethyl]-10,11-dihydro-5H-pyrrolo[2,1-c][1,4]benzodiazepine-3-carboxamide]	–
